Assay [1] deals with human membrane-bound aminopeptidase P (Homo sapiens, UniProt O43895). The note with it: 0.5 mM arg = Pro-Pro in 0.1 M Hepes, pH 8.0; triplicate; cited from earlier work.
Assay [2] concerns the target monkey membrane-bound aminopeptidase P. The following applies: 0.5 mM arg = Pro-Pro in 0.1 M Hepes, pH 8.0; triplicate; cited from earlier work.
The target in assay [3] is bovine membrane-bound aminopeptidase P. The note with it: cited from earlier work; for IC50: 0.5 mM arg = Pro-Pro in 0.1 M Hepes, pH 8.0, triplicate.
Assay [4] has as its target T1, rat membrane-bound aminopeptidase P (Rattus norvegicus, UniProt Q99MA2).
T1 sequence (Q99MA2 23-650): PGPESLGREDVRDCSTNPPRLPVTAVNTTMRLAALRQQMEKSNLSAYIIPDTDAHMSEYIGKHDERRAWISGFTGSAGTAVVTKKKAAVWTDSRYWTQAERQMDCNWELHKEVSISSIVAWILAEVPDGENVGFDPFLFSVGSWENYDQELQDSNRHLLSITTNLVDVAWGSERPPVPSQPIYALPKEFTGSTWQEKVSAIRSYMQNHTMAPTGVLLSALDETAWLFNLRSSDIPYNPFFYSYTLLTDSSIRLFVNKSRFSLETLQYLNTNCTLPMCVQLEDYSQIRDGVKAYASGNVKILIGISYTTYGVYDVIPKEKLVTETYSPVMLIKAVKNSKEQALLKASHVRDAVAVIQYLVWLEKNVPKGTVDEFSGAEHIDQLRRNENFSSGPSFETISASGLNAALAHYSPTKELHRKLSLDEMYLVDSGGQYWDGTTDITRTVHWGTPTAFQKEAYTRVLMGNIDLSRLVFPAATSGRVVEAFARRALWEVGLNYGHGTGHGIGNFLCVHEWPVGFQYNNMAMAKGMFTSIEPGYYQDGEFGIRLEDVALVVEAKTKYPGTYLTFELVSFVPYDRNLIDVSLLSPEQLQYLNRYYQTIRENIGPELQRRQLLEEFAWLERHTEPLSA
The note with it: cited from earlier work; for IC50: 0.5 mM arg = Pro-Pro in 0.1 M Hepes, pH 8.0, triplicate.

For another assay, the system named is aminopeptidase P. The experiment in a line: Binding of aminopeptidase P cDNA fragment phage to wells coated with […] peptide, with competitors. The arrangement: species or system human. The note with it: 1 mg free peptide; apstatin 10 μg/ml; IgG 10 μg/ml. The method, then: The peptide was synthesized in a Symphony synthesizer (Rainin Instruments; Emeryville, Calif.), cyclized, and purified by HPLC. The peptide was immobilized on a 96 well Reacti-Bind® polystyrene strip plate (Pierce; Rockford, Ill.). The wells were then treated three times×200 μl SuperBlock® blocking buffer (Pierce).
A human breast carcinoma cDNA library on T7 phage obtained from Novagen was amplified in a single step by infecting BLT 5615 bacteria. Phage suspension (100 μl, 10^9 pfu/ml) in PBS was incubated in the wells for one hour; the wells were then washed five times with 200 μl PBS and once with elution buffer (Novagen) to elute phage bound with low and intermediate affinity. Phage bound to the immobilized peptide were subsequently recovered by incubating BLT 5615 bacteria in the wells for 10 minutes at room temperature.

For assay [5], the system named is breast tissue. The experiment in a line: In vivo phage homing: recovery of injected phage from tissues. Details: species or system mice. The note with it: breast tissue as compared to control pancreatic tissue. The method, then:
A CX7C library (10^9 plaque forming units) was injected into the tail vein of mice; after seven minutes, the mice were perfused through the heart, and phage rescued from breast tissue. The rescued phage were then amplified and re-injected in four additional consecutive rounds. The number of plaque forming units (pfu) recovered from breast tissue is shown (black bars). As a control, non-recombinant T7 phage were injected (white bars). In round five, the number of pfu of phage recovered from the pancreas also was determined (gray bar).
(§1) The number of pfu recovered from each organ is shown.
A phage display peptide library with the general structure of CX7C, where C is cysteine and X is any amino acid, was constructed in T7 phage essentially as follows. Briefly, complementary oligonucleotides that encoded the random peptide insert as NNK codons, and had 5′EcoRI and 3′HindIII overhangs, were annealed. The resulting double stranded DNA was phosphorylated with T4 polynucleotide kinase (Novagen; Madison, Wis.) and ligated into 1 ug of T7Select415-1b vector arms. The ligated product was directly added to 50 μl of packaging extract and incubated for two hours, yielding 10^8 pfu total recombinants. The recombinants were amplified in 500 ml of liquid culture. […] (Oxford, U.K.: Oxford University Press), 2001.
(§2) In vivo phage selection was performed as described previously with a few modifications. Briefly, mice were anesthetized with avertin and then injected intravenously with 10^9 plaque forming units (pfu) from the CX7C library. Seven minutes after the injection, the mice were perfused through the heart with 10 ml of phosphate buffered saline (PBS). Mammary tissue was then excised, weighed, and homogenized using a Medimachine (Dako, Denmark). The resulting single cells were spun down at 1500 rpm and washed five times with PBS. Phage adherent to the cells were rescued by infecting BL21 bacteria (Novagen), and the phage quantified by plaque assay.

Assay [6] concerns breast tissue. The experiment in a line: In vivo blocking of breast homing of phage by co-injected agents. The note with it: mice. The method, then: as §1, §2
For a further assay, the system named is mitochondrial membranes. In words: Mitochondrial swelling assay. The note with it: at a concentration of 10 μM. From the text: In one embodiment, the invention provides a conjugate in which the antimicrobial peptide portion promotes disruption of mitochondrial membranes when internalized by eukaryotic cells. In particular, such an antimicrobial peptide preferentially disrupts mitochondrial membranes as compared to eukaryotic membranes. Mitochondrial membranes, like bacterial membranes but in contrast to eukaryotic plasma membranes, have a high content of negatively charged phospholipids. An antimicrobial peptide can be assayed for activity in disrupting mitochondrial membranes using, for example, an assay for mitochondrial swelling (as described in Example I) or another assay well known in the art. […] An antimicrobial peptide that induces significant mitochondrial swelling at, for example, 50 μM, 40 μM, 30 μM, 20 μM, 10 μM, or less, is considered a peptide that promotes disruption of mitochondrial membranes.

Square brackets hold non-standard residues; d marks the D form. Ends that are not written are not given here. Peptide text beside a SMILES is read from it. * marks the point of attachment. X1 = NC(Cc1ccccc1)C(O)C(=O)*; βAla = NCCC(=O)O

Usually IC50 stands for the point on the concentration scale where inhibition reaches its midpoint. What is called Ki is the equilibrium dissociation constant of an inhibitor or competing ligand from its target.

human membrane-bound aminopeptidase P, sequence (O43895 22-649): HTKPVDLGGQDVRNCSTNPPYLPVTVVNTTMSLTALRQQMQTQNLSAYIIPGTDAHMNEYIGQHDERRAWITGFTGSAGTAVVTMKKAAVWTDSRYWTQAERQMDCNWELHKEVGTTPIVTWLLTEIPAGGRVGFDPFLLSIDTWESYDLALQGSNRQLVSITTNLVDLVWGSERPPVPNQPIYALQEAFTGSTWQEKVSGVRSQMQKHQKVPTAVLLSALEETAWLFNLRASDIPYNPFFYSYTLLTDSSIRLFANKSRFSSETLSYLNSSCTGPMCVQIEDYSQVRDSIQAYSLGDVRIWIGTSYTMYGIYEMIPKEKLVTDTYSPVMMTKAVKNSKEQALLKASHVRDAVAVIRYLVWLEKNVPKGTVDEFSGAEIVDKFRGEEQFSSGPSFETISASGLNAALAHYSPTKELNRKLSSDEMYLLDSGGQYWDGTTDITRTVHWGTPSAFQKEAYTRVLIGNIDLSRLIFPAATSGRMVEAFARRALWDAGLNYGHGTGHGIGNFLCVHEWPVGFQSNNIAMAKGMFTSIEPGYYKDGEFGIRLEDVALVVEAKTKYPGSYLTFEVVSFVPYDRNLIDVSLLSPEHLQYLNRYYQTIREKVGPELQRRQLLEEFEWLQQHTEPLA

`C[C@H](NC(=O)[C@@H]1CCCN1C(=O)C1CCCC1S)C(N)=O` (single isomer, unassigned) [Compound 11]: the 50% inhibitory concentration (IC50) is 390 µM in assay [1], 300 µM in assay [2], 300 µM in assay [3] and 150 µM in assay [4].
For the molecule `C[C@H](NC(=O)[C@@H]1CCCN1C(=O)C1CCCCC1C(=O)NO)C(N)=O` (single isomer, unassigned) [Compound 12], the IC50 was 50 µM in assay [3] and 37 µM in assay [4].
`C[C@H](NC(=O)[C@@H]1CCCN1C(=O)[C@@H]1CCCN1C(=O)[C@@H](O)[C@H](N)Cc1ccccc1)C(N)=O` [Compound 1, apstatin]: the results for the IC50 in assay [3] and in assay [4] were 9.4 µM and 4.1 µM, respectively. Further, the figures for the inhibition constant Ki in assay [3] (in brackets in the IC50 cell of Table 2) and in assay [4] (Yoshimoto et al. 1994) were 7.8 µM and 2.6 µM, respectively. Besides, the “effect on binding of aminopeptidase P encoding phage to insolubilized CPGPEGAGC peptide” value in the assay with aminopeptidase P is “blocked”.
Consider `NC(=O)C1CCCN1C(=O)C1CCCN1C(=O)C(O)C(N)Cc1ccccc1` (stereo not shown) [Compound 3], for which the results for the IC50 in assay [3] and in assay [4] were 1300 µM and 390 µM, respectively.
Take `CC(NC(=O)C1CCCN1C(=O)C1CCCN1C(=O)C(O)C(N)Cc1ccccc1)C(=O)NCCC(=O)NC(CS)C(N)=O` (stereo not shown) [Compound 4] (X1-PPA[βAla]C-NH2; configuration not given here): the IC50 in assay [4] is 0.66 µM.
Turning to `CC(C)C[C@@H](N)[C@H](O)C(=O)N1CCC[C@H]1C(=O)N[C@@H](C)C(N)=O` [Compound 5], the half-inhibitory concentration (IC50) in assay [3] was 4.5 µM; in assay [4], 0.56 µM.
Turning to `CC(C)C[C@H](N)[C@@H](O)C(=O)N1CCC[C@H]1C(=O)N[C@@H](C)C(N)=O` [Compound 6], the 50% inhibitory concentration (IC50) in assay [3] is 2.1 µM; in assay [4] it was 0.31 µM.
Consider `CC(C)C[C@@H](N)[C@@H](O)C(=O)N1CCC[C@H]1C(=O)N[C@@H](C)C(N)=O` [Compound 7], for which the IC50 in assay [3] is 50 µM; in assay [4], 19 µM.
Take `CC(C)C[C@H](N)[C@H](O)C(=O)N1CCC[C@H]1C(=O)N[C@@H](C)C(N)=O` [Compound 8]: the IC50 in assay [3] is 470 µM; in assay [4] it was 100 µM.
For `CC(NC(=O)C1CCCN1C(=O)C1CCCC1S)C(N)=O` (stereo not shown) [Compound 10], the results for the IC50 in assay [1] and in assay [4] were 29 µM and 3.4 µM, respectively.
For the molecule “CPGPEGAGC (also: cyclized (mode not given here)) [breast homing cyclic peptide, synthesized, cyclized and purified by HPLC]”, the “effect on binding of aminopeptidase P encoding phage to insolubilized CPGPEGAGC peptide” value in the assay with aminopeptidase P is reported as “blocked”. Moreover, the “selective homing identified by in vivo panning” value (from here on “selective homing identified”) in the assay with breast tissue [5] was “selectively homing to breast tissue”. The “effect of coinjection on recovery of CPGPEGAGC phage from breast tissue” value in the assay with breast tissue [6] (0.5 ml of 2 mg/ml free peptide coinjected) is “markedly reduced”. In addition, in the assay with breast tissue [6] (anti-aminopeptidase P antiserum or 1 mg free peptide), the “effect on breast homing / recovery of CRSS phage” value is given as “no effect”.
For the molecule CRSS [CRSS (SEQ ID NO: 3)], the “selective homing identified” value with breast tissue [5] is on record as “selectively homing to breast tissue”.
As for CRTS [CRTS (SEQ ID NO: 4)], the “selective homing identified” value in the assay with breast tissue [5] was “selectively homing to breast tissue”.
Regarding D(KLAKLAK)2, in the assay with mitochondrial membranes, the mitochondrial swelling result is on record as “marked mitochondrial swelling”.

These data come from patent US7666391B2, “Breast homing peptides and methods of identifying same using aminopeptidase P” (Burnham Institute for Medical Research, priority 2001, dated 2010).
